# Measured values as given in paper PMC9226124, “Macrocycle-stabilization of its interaction with 14-3-3 increases plasma membrane localization and activity of CFTR” (Nature Communications, 2022).
# Legend:
# [1] = target: T1, 14-3-3β/CFTRpS753pS768 complex (Homo sapiens, UniProt P13569+P31946); assay: Dose-response fluorescence polarization (FP) assay, compound titration; assay type: binding; settings: for FP signal: With 14-3-3
# T1 construct: His6 (cleaved yes); made in house; peptide synthetic
# T1 sequence (P31946 whole entry): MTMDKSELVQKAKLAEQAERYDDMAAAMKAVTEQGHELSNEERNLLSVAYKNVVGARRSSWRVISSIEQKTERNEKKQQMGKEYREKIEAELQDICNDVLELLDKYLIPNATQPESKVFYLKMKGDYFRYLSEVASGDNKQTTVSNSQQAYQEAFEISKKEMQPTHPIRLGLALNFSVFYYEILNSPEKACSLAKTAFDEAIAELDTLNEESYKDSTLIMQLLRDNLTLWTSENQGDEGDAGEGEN
# T1 sequence (P13569 747-774 limits assumed): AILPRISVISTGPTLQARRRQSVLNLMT
# Description: The 14-3-3β concentration used for the FP screening assay was 10 μM (dashed line). c HTS FP assay of the Cyclenium library. The samples contain 100 nM of FITC-CFTR_pS753pS768 peptide, 10 μM 14-3-3β, and 50 μM compound. FC-A (100 µM) was added as a positive control and DMSO as the negative control. Hit compounds are defined as a polarization increase which is higher than 20% of the response of FC-A. Red squares are compounds that appeared positive in the negative control without 14-3-3. […] Background polarization was subtracted from all values, n = 3 technical replicates. Compounds selected for further analysis are indicated with an asterisk. e Polarization in the absence of 14-3-3. […] Source data are provided as a Source Data file. […]
# (§1) The FITC-labeled peptides were dissolved in FP buffer (10 mM HEPES pH 7.4, 150 mM NaCl, 0.1% Tween20, 1 mg/mL BSA) to a final concentration of 100 nM or 10 nM. For the dose-response assays, a 14-3-3β concentration of 10 μM was used while titrating the compounds in a two-times dilution series and, for the other assays, a dilution series of 14-3-3β was made with constant concentration of compound. The dilution series were made in 384 Corning Black Round Bottom well plates and their polarization was measured with a Tecan Infinite F500 plate reader (ex. = 485 nm, em. = 535 nm). The method of fitting of the curves was: “log(agonist) vs. response – Variable slope (four parameters)” from GraphPad Prism. The equation is Y = Bottom + (Top-Bottom)/(1 + 10^((LogEC50-X)*HillSlope)).
# [2] = target: T2, FITC-labeled CFTRpS753pS768 peptide (no 14-3-3) (Homo sapiens, UniProt P13569); assay: Dose-response FP control assay in the absence of 14-3-3; assay type: binding; settings: No 14-3-3
# T2 construct: made in house; host or cells: synthetic peptide
# Description: The 14-3-3β concentration used for the FP screening assay was 10 μM (dashed line). c HTS FP assay of the Cyclenium library. The samples contain 100 nM of FITC-CFTR_pS753pS768 peptide, 10 μM 14-3-3β, and 50 μM compound. FC-A (100 µM) was added as a positive control and DMSO as the negative control. Hit compounds are defined as a polarization increase which is higher than 20% of the response of FC-A. Red squares are compounds that appeared positive in the negative control without 14-3-3. […] Background polarization was subtracted from all values, n = 3 technical replicates. Compounds selected for further analysis are indicated with an asterisk. e Polarization in the absence of 14-3-3. […] Source data are provided as a Source Data file.
# as §1
compound,measurement,setting,value
N=C(N)NCCCC1NC(=O)C(Cc2ccccc2)NC(=O)C2(CCC(c3ccccc3)CC2)NCc2cccc(c2)-c2ccccc2CNC(=O)C(Cc2c[nH]c3ccccc23)NC1=O (stereo not drawn) [CY007183],EC50,"[1]; 14-3-3β 10 μM, labeled CFTRpS753pS768 100 nM",False positive
same,FP signal,[1]; compound 338.6 pM,2
same,FP signal,[1]; compound 677.1 pM,4
same,FP signal,[1]; compound 1.35422e-9 M,3
same,FP signal,[1]; compound 2.70843e-9 M,4
same,FP signal,[1]; compound 5.41687e-9 M,4
same,FP signal,[1]; compound 1.08337e-8 M,2
same,FP signal,[1]; compound 2.16675e-8 M,4
same,FP signal,[1]; compound 4.3335e-8 M,3
same,FP signal,[1]; compound 8.66699e-8 M,2
same,FP signal,[1]; compound 1.7334e-7 M,4
same,FP signal,[1]; compound 3.4668e-7 M,4
same,FP signal,[1]; compound 6.93359e-7 M,5
same,FP signal,[1]; compound 1.38672e-6 M,7
same,FP signal,[1]; compound 2.77344e-6 M,8
same,FP signal,[1]; compound 5.54688e-6 M,14
same,FP signal,[1]; compound 1.10938e-5 M,24
same,FP signal,[1]; compound 2.21875e-5 M,49
same,FP signal,[1]; compound 4.4375e-5 M,80
same,FP signal,[1]; compound 8.875e-5 M,145
same,FP signal,[1]; compound 0.0001775 M,211
same,FP signal,[1]; compound 0.000355 M,249
same,FP signal,[1]; compound 0.00071 M,275
same,FP signal,[2]; compound 338.6 pM,2
same,FP signal,[2]; compound 677.1 pM,4
same,FP signal,[2]; compound 1.35422e-9 M,3
same,FP signal,[2]; compound 2.70843e-9 M,4
same,FP signal,[2]; compound 5.41687e-9 M,4
same,FP signal,[2]; compound 1.08337e-8 M,2
same,FP signal,[2]; compound 2.16675e-8 M,4
same,FP signal,[2]; compound 4.3335e-8 M,3
same,FP signal,[2]; compound 8.66699e-8 M,2
same,FP signal,[2]; compound 1.7334e-7 M,4
same,FP signal,[2]; compound 3.4668e-7 M,4
same,FP signal,[2]; compound 6.93359e-7 M,5
same,FP signal,[2]; compound 1.38672e-6 M,7
same,FP signal,[2]; compound 2.77344e-6 M,8
same,FP signal,[2]; compound 5.54688e-6 M,14
same,FP signal,[2]; compound 1.10938e-5 M,24
same,FP signal,[2]; compound 2.21875e-5 M,49
same,FP signal,[2]; compound 4.4375e-5 M,80
same,FP signal,[2]; compound 8.875e-5 M,145
same,FP signal,[2]; compound 0.0001775 M,211
same,FP signal,[2]; compound 0.000355 M,249
same,FP signal,[2]; compound 0.00071 M,275
